Test results: ChEMBL document CHEMBL1909046, “DrugMatrix in vitro pharmacology data”
pIC50, pKi: −log10 of the molar value.

How the values were obtained:
[1] = molecular target: Cytochrome P450 2D6 (Homo sapiens, UniProt P10635); settings: bti-tn-5b1-4; note: in other assays of this panel Not Active means under 50% inhibition at 10 µM
[2] = molecular target: T1, Glucocorticoid receptor (Homo sapiens, UniProt P04150); settings: hela s3; note: in other assays of this panel Not Active means under 50% inhibition at 10 µM
T1 sequence (P04150 whole entry): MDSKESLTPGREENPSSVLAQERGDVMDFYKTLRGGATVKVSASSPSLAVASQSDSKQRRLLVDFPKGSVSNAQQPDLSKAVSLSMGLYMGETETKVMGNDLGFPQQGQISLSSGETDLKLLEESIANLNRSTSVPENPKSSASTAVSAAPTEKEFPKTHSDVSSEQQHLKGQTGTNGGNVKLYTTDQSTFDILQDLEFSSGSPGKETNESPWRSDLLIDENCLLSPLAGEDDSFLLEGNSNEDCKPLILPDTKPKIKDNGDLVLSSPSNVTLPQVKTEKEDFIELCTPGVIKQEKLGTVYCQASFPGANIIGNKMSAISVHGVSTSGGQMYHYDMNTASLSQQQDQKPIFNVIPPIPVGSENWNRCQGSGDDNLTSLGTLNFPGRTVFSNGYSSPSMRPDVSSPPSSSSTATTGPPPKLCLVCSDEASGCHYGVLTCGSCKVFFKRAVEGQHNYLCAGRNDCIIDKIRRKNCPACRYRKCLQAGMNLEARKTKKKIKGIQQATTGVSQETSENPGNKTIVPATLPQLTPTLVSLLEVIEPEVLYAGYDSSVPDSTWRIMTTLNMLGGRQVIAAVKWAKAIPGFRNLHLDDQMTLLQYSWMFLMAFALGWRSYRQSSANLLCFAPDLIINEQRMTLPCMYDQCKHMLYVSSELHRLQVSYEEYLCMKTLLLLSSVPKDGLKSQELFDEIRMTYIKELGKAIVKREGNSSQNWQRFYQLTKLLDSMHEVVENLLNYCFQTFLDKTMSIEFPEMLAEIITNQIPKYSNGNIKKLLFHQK

[3] = molecular target: Estrogen receptor beta (Homo sapiens, UniProt Q92731); settings: sf9; note: in other assays of this panel Not Active means under 50% inhibition at 10 µM
[4] = molecular target: Cytochrome P450 2C19 (Homo sapiens, UniProt P33261); settings: bti-tn-5b1-4; note: in other assays of this panel Not Active means under 50% inhibition at 10 µM
[5] = molecular target: Voltage-gated inwardly rectifying potassium channel KCNH2 (Homo sapiens, UniProt Q12809); settings: hek293; note: in other assays of this panel Not Active means under 50% inhibition at 10 µM
[6] = molecular target: Nitric oxide synthase 1 (Rattus norvegicus, UniProt P29476); assay type: tissue-based, Cerebellum; note: in other assays of this panel Not Active means under 50% inhibition at 10 µM
[7] = molecular target: Cytochrome P450 3A4 (Homo sapiens, UniProt P08684); settings: bti-tn-5b1-4; note: in other assays of this panel Not Active means under 50% inhibition at 10 µM
[8] = DRUGMATRIX: GABAA, Flunitrazepam, Central radioligand binding (ligand: [3H] Flunitrazepam); assay type: cell membranes, Rattus norvegicus, Wistar, Brain, Membrane; settings: Not Active = under 50% inhibition at 10 µM
[9] = molecular target: T2, Estrogen receptor (Homo sapiens, UniProt P03372); settings: sf9; note: in other assays of this panel Not Active means under 50% inhibition at 10 µM
T2 sequence (P03372 whole entry): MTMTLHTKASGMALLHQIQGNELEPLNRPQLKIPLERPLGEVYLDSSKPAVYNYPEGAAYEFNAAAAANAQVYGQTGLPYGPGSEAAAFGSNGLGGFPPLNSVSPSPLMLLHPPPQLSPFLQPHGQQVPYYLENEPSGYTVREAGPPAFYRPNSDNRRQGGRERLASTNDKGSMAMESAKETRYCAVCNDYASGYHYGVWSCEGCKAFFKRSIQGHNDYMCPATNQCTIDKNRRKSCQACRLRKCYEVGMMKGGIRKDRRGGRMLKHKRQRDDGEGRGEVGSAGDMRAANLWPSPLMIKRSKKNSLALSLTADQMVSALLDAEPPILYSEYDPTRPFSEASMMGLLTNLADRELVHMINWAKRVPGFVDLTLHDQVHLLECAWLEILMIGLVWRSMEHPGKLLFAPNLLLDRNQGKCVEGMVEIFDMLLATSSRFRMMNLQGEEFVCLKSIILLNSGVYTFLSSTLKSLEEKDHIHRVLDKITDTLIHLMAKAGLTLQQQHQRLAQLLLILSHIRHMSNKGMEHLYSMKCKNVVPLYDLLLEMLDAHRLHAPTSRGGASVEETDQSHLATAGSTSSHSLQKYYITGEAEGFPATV

[10] = DRUGMATRIX: Potassium Channel [KATP] radioligand binding (ligand: [3H] Glyburide); assay type: cell membranes, Membrane; settings: hit-t15; Not Active = under 50% inhibition at 10 µM
[11] = molecular target: 5-hydroxytryptamine receptor 2B (Homo sapiens, UniProt P41595); assay type: cell membranes, CHO-K1, Membrane; settings: for pIC50: read-out: IC50; for pKi: read-out: Ki; for IC50: cho-k1
[12] = DRUGMATRIX: Glutamate, NMDA, Agonism radioligand binding (ligand: [3H] CGP-39653); assay type: cell membranes, Rattus norvegicus, Wistar, Cerebral cortex, Membrane; settings: Not Active = under 50% inhibition at 10 µM
[13] = molecular target: T3, Muscarinic acetylcholine receptor M5 (Homo sapiens, UniProt P08912); assay type: cell membranes, CHO-K1, Membrane; settings: cho-k1; note: in other assays of this panel Not Active means under 50% inhibition at 10 µM
T3 sequence (P08912 whole entry): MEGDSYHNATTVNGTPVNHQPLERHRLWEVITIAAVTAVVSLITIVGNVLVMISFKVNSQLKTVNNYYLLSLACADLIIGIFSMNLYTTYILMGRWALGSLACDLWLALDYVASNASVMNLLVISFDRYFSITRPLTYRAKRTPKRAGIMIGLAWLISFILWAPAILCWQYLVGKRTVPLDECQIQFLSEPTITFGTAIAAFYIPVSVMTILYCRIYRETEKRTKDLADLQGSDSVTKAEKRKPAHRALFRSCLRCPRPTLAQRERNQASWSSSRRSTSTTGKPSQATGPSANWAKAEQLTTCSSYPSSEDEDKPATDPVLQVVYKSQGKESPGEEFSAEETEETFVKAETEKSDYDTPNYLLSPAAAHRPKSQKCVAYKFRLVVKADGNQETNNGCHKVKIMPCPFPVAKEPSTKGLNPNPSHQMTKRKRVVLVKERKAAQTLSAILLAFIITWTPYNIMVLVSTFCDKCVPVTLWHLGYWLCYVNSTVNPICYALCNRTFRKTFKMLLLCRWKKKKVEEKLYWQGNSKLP

[14] = molecular target: Sodium-dependent noradrenaline transporter (Homo sapiens, UniProt P23975); assay: DRUGMATRIX: Norepinephrine Transporter radioligand binding (ligand: [125I] RTI-55); assay type: cell membranes, MDCK, Membrane; settings: Not Active = under 50% inhibition at 10 µM; for IC50: mdck; for pIC50: read-out: IC50; for pKi: read-out: Ki

5-hydroxytryptamine receptor 2B, sequence (P41595 whole entry): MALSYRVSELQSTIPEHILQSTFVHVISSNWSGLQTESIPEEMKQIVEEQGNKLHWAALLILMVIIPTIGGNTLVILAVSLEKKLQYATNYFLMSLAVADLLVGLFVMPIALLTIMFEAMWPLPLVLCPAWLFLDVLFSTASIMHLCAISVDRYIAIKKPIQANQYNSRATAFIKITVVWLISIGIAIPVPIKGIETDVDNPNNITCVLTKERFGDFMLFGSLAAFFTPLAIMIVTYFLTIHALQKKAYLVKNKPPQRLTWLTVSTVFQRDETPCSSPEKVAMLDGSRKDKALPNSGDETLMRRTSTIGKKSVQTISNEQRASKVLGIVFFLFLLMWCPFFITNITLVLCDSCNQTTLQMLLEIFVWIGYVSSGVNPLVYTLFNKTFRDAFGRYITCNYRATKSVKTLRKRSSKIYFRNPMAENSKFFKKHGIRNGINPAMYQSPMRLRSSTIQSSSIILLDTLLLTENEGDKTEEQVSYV
Nitric oxide synthase 1, sequence (P29476 whole entry): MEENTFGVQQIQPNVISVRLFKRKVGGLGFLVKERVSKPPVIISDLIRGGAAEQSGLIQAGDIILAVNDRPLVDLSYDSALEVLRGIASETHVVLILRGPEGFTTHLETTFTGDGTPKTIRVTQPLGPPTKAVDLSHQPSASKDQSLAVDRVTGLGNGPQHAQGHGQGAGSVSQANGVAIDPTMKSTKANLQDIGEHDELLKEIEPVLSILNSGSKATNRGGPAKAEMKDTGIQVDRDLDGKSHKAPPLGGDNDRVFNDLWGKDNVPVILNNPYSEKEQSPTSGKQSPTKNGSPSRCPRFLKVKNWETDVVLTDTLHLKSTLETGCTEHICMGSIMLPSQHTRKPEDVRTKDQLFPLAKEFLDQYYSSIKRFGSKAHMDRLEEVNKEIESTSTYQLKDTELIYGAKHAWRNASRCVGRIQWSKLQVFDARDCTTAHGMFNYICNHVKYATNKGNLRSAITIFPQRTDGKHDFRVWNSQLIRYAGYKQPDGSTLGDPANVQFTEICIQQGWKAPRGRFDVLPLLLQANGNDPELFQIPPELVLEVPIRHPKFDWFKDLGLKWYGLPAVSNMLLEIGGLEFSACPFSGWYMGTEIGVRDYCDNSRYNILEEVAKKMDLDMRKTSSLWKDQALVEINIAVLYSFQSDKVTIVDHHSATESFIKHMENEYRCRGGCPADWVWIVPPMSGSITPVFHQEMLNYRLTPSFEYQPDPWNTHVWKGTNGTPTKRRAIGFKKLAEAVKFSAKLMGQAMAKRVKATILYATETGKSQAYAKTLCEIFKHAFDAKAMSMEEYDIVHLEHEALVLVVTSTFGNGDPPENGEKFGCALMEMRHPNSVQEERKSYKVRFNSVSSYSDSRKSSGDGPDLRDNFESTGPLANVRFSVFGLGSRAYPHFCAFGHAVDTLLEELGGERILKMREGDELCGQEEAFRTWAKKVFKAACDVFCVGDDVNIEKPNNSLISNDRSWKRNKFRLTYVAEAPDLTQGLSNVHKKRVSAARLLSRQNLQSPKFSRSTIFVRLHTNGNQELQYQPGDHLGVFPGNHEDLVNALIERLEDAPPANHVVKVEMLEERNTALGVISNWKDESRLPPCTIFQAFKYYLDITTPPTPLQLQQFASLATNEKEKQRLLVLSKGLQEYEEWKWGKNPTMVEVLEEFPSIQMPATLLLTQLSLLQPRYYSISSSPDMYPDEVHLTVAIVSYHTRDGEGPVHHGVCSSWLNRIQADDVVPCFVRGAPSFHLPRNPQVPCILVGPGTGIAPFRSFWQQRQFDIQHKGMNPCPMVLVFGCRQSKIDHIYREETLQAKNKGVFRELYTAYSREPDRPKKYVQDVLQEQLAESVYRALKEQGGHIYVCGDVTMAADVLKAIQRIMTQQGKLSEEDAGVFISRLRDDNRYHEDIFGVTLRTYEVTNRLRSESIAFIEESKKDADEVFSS
Cytochrome P450 2D6, sequence (P10635 whole entry): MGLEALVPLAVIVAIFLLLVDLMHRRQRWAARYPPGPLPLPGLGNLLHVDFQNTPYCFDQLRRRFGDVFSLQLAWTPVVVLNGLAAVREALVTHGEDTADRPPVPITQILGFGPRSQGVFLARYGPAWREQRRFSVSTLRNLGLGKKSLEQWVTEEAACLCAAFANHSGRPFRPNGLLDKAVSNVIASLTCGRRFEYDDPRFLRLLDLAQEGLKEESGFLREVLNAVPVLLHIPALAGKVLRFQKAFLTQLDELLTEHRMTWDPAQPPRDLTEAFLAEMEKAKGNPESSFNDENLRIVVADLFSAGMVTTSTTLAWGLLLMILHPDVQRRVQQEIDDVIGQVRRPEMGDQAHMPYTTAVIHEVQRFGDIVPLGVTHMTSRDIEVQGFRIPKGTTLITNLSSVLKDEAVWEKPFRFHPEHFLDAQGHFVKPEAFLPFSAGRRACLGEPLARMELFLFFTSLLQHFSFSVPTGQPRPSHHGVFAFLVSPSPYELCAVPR
Estrogen receptor beta, sequence (Q92731 whole entry): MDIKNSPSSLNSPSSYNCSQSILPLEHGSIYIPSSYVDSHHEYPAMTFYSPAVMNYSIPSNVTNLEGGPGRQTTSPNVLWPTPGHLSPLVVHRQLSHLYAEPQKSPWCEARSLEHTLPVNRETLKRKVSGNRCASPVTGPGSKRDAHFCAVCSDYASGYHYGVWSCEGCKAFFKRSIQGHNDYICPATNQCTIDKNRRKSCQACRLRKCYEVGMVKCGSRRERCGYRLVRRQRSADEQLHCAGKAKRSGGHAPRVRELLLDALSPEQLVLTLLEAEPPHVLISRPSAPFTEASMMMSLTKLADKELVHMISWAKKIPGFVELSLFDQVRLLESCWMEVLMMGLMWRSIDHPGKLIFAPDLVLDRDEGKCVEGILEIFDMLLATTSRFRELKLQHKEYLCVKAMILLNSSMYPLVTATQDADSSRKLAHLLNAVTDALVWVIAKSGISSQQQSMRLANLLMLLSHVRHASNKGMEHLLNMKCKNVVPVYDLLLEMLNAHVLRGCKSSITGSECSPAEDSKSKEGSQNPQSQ
Voltage-gated inwardly rectifying potassium channel KCNH2, sequence (Q12809 whole entry): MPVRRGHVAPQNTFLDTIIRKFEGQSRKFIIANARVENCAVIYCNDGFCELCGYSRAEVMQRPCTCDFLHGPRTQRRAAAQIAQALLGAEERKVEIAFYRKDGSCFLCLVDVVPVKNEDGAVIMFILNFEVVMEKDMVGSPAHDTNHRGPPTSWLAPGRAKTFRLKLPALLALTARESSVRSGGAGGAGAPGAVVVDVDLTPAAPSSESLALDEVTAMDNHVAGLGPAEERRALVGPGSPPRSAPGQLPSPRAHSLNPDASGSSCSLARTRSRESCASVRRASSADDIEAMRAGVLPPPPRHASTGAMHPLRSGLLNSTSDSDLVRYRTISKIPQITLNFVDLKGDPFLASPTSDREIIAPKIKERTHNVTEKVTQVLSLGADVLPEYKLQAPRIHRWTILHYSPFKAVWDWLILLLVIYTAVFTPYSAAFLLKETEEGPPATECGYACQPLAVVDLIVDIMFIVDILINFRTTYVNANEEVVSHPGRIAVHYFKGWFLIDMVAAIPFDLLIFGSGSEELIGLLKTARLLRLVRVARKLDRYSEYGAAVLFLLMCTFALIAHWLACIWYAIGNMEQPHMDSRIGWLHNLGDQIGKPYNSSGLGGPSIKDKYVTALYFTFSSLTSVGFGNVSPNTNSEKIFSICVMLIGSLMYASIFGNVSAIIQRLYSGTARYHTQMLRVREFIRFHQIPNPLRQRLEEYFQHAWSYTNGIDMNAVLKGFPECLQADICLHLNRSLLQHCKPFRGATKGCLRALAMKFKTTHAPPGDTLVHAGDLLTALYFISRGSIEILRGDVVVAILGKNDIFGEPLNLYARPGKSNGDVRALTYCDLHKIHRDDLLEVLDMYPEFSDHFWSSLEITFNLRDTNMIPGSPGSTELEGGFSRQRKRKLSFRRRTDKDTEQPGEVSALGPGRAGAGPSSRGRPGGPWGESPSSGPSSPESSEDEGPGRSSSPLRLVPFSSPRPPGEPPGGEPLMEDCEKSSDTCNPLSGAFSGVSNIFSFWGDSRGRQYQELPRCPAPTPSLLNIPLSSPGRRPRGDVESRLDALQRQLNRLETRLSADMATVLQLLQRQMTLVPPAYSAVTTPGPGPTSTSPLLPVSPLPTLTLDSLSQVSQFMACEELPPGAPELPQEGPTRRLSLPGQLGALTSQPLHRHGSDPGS
Cytochrome P450 3A4, sequence (P08684 whole entry): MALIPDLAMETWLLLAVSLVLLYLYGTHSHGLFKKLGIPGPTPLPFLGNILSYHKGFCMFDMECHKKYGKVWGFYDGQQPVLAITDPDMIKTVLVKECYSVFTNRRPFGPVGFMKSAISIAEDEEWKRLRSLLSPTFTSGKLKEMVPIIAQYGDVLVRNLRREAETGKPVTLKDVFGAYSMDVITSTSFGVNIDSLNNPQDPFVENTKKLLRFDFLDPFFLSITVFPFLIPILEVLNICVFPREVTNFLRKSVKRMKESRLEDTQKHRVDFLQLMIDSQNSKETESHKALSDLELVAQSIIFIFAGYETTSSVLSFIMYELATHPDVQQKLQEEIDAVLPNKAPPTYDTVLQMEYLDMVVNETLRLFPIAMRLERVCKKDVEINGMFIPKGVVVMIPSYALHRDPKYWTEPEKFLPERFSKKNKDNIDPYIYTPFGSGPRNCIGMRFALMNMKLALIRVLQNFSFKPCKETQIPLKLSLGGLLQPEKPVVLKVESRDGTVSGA

Structure (SMILES)	IC50 [1]	Ki [1]	IC50 [2]	IC50 [3]	IC50 [4]	Ki [4]	IC50 [5]	Ki [5]	IC50 [6]	IC50 [7]	Ki [7]	IC50 [8]	Ki [8]	IC50 [10]	Ki [10]	IC50 [12]	Ki [12]	IC50 [13]	IC50 [14]	IC50 [11]	further results
O=C(CCCN1CCC(O)(c2ccc(Cl)cc2)CC1)c1ccc(F)cc1 [HALOPERIDOL]	Not Active	Not Active	Not Active	Not Active	Not Active	Not Active	Not Active	Not Active	Not Active	Not Active	Not Active										
CC1=C(/C=C/C(C)=C/C=C/C(C)=C\C(=O)O)C(C)(C)CCC1 [ISOTRETINOIN]	Not Active	Not Active	Not Active		Not Active	Not Active			Not Active	Not Active	Not Active	Not Active	Not Active	Not Active	Not Active	Not Active	Not Active	Not Active	Not Active		IC50 [9]: Not Active; pIC50 [11]: 6.07; pKi [11]: 6.27
Clc1ccc(C(c2ccccc2Cl)C(Cl)Cl)cc1 (stereo not given) [MITOTANE]	Not Active	Not Active	Not Active	Not Active	Not Active	Not Active	Not Active	Not Active	Not Active	Not Active	Not Active	Not Active	Not Active	Not Active	Not Active	Not Active	Not Active	Not Active			pIC50 [11]: 5.32; pKi [11]: 5.51; pIC50 [14]: 6.09; pKi [14]: 6.09
O=C1c2c(O)ccc(O)c2C(=O)c2c(NCCNCCO)ccc(NCCNCCO)c21 [MITOXANTRONE]			Not Active	Not Active					Not Active			Not Active	Not Active	Not Active	Not Active	Not Active	Not Active	Not Active		Not Active	pIC50 [14]: 5.30; pKi [14]: 5.31
Cc1cc(NS(=O)(=O)c2ccc(N)cc2)no1 [SULFAMETHOXAZOLE]			Not Active	Not Active					Not Active			Not Active	Not Active	Not Active	Not Active	Not Active	Not Active	Not Active	Not Active	Not Active	
Nc1ccc(S(N)(=O)=O)cc1 [SULFANILAMIDE]			Not Active	Not Active					Not Active			Not Active	Not Active	Not Active	Not Active	Not Active	Not Active	Not Active	Not Active	Not Active	
CN(C)[C@@H]1C(O)=C(C(N)=O)C(=O)[C@@]2(O)C(O)=C3C(=O)c4c(O)cccc4[C@@](C)(O)[C@H]3C[C@@H]12 [TETRACYCLINE]	Not Active	Not Active	Not Active	Not Active	Not Active	Not Active	Not Active	Not Active	Not Active	Not Active	Not Active	Not Active	Not Active	Not Active	Not Active	Not Active	Not Active	Not Active	Not Active	Not Active	
CSc1ccc2c(c1)N(CCC1CCCCN1C)c1ccccc1S2 (stereo not given) [THIORIDAZINE]			Not Active						Not Active	Not Active	Not Active										IC50 [9]: Not Active
COc1cccc(C2(O)CCCCC2CN(C)C)c1 (stereo not given) [TRAMADOL]	Not Active	Not Active	Not Active		Not Active	Not Active	Not Active	Not Active	Not Active									Not Active		Not Active	IC50 [9]: Not Active
COc1cc(C(=O)NC2CCCNC2)cc(OC)c1OC (stereo not given) [TROXIPIDE]	Not Active	Not Active	Not Active	Not Active	Not Active	Not Active	Not Active	Not Active	Not Active	Not Active	Not Active	Not Active	Not Active	Not Active	Not Active	Not Active	Not Active	Not Active	Not Active	Not Active	
